Laboratory results as given in patent US8361998B2, “Compounds and their use as IKACh blockers” (AstraZeneca AB, priority 2010, dated 2013).
Like-named read-outs stand apart in the source and are kept apart here.

Target: T1, human cardiac ion channel proteins hKir3.1/Kir3.4 (Homo sapiens, UniProt P48544+P48549)
T1 construct: expressed in transfected cells
T1 sequence (P48549 1-501): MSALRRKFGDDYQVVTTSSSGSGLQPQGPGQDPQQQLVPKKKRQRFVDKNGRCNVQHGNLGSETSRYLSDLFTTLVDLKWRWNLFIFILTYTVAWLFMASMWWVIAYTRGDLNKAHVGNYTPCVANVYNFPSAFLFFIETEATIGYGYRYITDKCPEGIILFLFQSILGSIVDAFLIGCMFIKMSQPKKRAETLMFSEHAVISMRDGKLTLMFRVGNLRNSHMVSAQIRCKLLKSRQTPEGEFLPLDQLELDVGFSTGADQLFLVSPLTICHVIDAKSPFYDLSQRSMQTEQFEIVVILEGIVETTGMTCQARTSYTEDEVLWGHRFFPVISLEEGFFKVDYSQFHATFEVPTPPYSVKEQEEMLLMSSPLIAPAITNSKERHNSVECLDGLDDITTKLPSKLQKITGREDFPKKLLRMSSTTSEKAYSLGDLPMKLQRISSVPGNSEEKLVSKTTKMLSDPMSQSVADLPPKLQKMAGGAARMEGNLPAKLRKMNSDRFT
T1 sequence (P48544 1-419): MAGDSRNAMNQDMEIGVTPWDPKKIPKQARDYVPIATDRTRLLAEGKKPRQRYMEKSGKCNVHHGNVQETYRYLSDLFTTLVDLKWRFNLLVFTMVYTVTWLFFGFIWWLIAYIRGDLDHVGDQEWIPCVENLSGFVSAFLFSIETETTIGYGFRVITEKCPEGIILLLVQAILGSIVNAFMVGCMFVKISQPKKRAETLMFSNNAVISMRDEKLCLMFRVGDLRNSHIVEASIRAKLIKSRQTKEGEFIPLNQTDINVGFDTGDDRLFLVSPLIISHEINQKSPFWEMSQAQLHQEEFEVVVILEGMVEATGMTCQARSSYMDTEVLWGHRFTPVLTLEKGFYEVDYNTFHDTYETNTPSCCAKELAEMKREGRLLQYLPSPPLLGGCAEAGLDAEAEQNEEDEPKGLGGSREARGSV
Experiment: Atomic Absorption Screening (AAS) Rb efflux assay of hKir3.1/Kir3.4 block, carbachol/high K+ stimulated, 10-pt or 7-pt CR
Format: cell-based
Outline: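 Mean IC50s derive from >4 replicates over 0.003–67 μmol/L (10-point) or >3 replicates over 0.037–27 μmol/L (7-point), both threefold steps. Rb-loaded (3 h, 37° C) CHO-K1 cells stably expressing hKir3.1/Kir3.4 saw compound for 5 min at RT before 10-min channel opening by carbachol 10 μM/KCl 20 mM final. Released Rb was quantified by atomic absorption.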

[1] = 10-pt CR (0.003 to 67 μmol/L), AAS Rb efflux, CHO-K1 cells expressing hKir3.1/Kir3.4, mean of >4 replicates, read-out: IKACh IC50 10-pt CR, AAS
[2] = printed as IC50 >67 μM in the 10-pt CR assay or IC50 >27 μM in the 7-pt CR assay, assay format per compound not stated, read-out: IC50

| SMILES | IC50 [1] | IC50 [2] |
| --- | --- | --- |
| C[C@@H](CN1CC(O)C1)N(C)C(=O)c1ccc(Br)cc1 [Example 41, (S)-4-Bromo-N-(1-(3-hydroxyazetidin-1-yl)propan-2-yl)-N-methylbenzamide] | 7.3 µM | – |
| CCC[C@@H](CN1CCC(O)CC1)N(C)C(=O)c1ccc(Cl)cc1 [Example 44, (S)-4-Chloro-N-(1-(4-hydroxypiperidin-1-yl)pentan-2-yl)-N-methylbenzamide] | 0.81 µM | – |
| CCC[C@@H](CN1CCC(OC)CC1)N(C)C(=O)c1ccc(Cl)cc1 [Example 45, (S)-4-Chloro-N-(1-(4-methoxypiperidin-1-yl)pentan-2-yl)-N-methylbenzamide] | 0.68 µM | – |
| CCC[C@@H](CN1CC[C@H](O)C1)N(C)C(=O)c1ccc(Cl)cc1 [Example 46.2, 4-Chloro-N—((S)-1-((S)-3-hydroxypyrrolidin-1-yl)pentan-2-yl)-N-methylbenzamide] | 5.5 µM | – |
| Cc1cc(C(=O)N(C)[C@H](CN2C[C@@H](O)[C@H](O)C2)C(C)C)ccc1F [N-((S)-1-((3R,4R)-3,4-Dihydroxypyrrolidin-1-yl)-3-methylbutan-2-yl)-4-fluoro-N,3-dimethylbenzamide] | – | > 27 µM |
| CC(C)[C@@H](CCN1CCCC1)N(C)C(=O)c1ccccc1 [N-Methyl-N-[(1R)-2-methyl-1-(2-pyrrolidin-1-ylethyl)propyl]benzamide] | – | > 27 µM |
| CC(C)[C@H](CN1CCCC1)N(C)C(=O)c1ccccc1OC(F)(F)F [N-Methyl-N-[(1R)-2-methyl-1-(pyrrolidin-1-ylmethyl)propyl]-2-(trifluoromethoxy)benzamide] | – | > 27 µM |
| CC(C)[C@@H](CN1CCCCC1)N(C)C(=O)c1ccc(OC(F)(F)F)cc1 [N-Methyl-N-[(1S)-2-methyl-1-(piperidin-1-ylmethyl)propyl]-4-(trifluoromethoxy)benzamide] | – | > 27 µM |
| CC(C)[C@@H](CN1CCCC1)N(C)C(=O)c1ccccc1 [N-Methyl-N-[(1S)-2-methyl-1-(pyrrolidin-1-ylmethyl)propyl]benzamide] | – | > 27 µM |
| COc1cccc(C(=O)N(C)[C@H](CN2CCCC(F)(F)C2)C(C)C)c1 [N-[(1S)-1-[(3,3-Difluoro-1-piperidyl)methyl]-2-methyl-propyl]-3-methoxy-N-methyl-benzamide] | – | > 27 µM |

More lines, now with the values ahead:

| IC50 [1] | IC50 [2] | SMILES |
| --- | --- | --- |
| 0.81 µM | – | Cc1ccc(F)c(C(=O)N(C)[C@H](CN2CC(O)C2)C2CCC2)c1 [Example 39.10, (S)—N-(1-Cyclobutyl-2-(3-hydroxyazetidin-1-yl)ethyl)-2-fluoro-N,5-dimethylbenzamide] |
| 1.6 µM | – | CC[C@@H](CN1CC(O)C1)N(C)C(=O)c1ccc(Cl)c(F)c1 [Example 39.11, (S)-4-Chloro-3-fluoro-N-(1-(3-hydroxyazetidin-1-yl)butan-2-yl)-N-methylbenzamide] |
| 0.16 µM | – | CN(C(=O)c1ccc(F)cc1)[C@H](CN1CC(O)C1)C1CCC1 [Example 39.13, (S)—N-(1-Cyclobutyl-2-(3-hydroxyazetidin-1-yl)ethyl)-4-fluoro-N-methylbenzamide] |
| 0.25 µM | – | CN(C(=O)c1cccc(C(F)F)c1)[C@H](CN1CC(O)C1)C1CCC1 [Example 39.15, (S)—N-(1-Cyclobutyl-2-(3-hydroxyazetidin-1-yl)ethyl)-3-(difluoromethyl)-N-methylbenzamide] |
| 9.7 µM | – | C[C@@H](CN1CC(O)C1)N(C)C(=O)c1ccc(Cl)cc1 [Example 40.1, (S)-4-Chloro-N-(1-(3-hydroxyazetidin-1-yl)propan-2-yl)-N-methylbenzamide] |
| 8.5 µM | – | Cc1ccc(C(=O)N(C)[C@@H](C)CN2CC(O)C2)cc1C [Example 40.2, (S)—N-(1-(3-Hydroxyazetidin-1-yl)propan-2-yl)-N,3,4-trimethylbenzamide] |
| 9.4 µM | – | C[C@@H](CN1CC(O)C1)N(C)C(=O)c1ccc(Cl)c(F)c1 [Example 40.3, (S)-4-Chloro-3-fluoro-N-(1-(3-hydroxyazetidin-1-yl)propan-2-yl)-N-methylbenzamide] |
| 6.1 µM | – | Cc1cc(C(=O)N(C)[C@@H](C)CN2CC(O)C2)ccc1Cl [Example 40.4, (S)-4-Chloro-N-(1-(3-hydroxyazetidin-1-yl)propan-2-yl)-N,3-dimethylbenzamide] |
| 4 µM | – | CC[C@@H](CN1CC(O)C1)N(C)C(=O)c1ccc(Br)cc1 [Example 42, (S)-4-Bromo-N-(1-(3-hydroxyazetidin-1-yl)butan-2-yl)-N-methylbenzamide] |
| 8 µM | – | CCC[C@@H](CN1CC[C@H](O)C1)N(C)C(=O)c1ccc(C#N)cc1 [Example 46.1, 4-Cyano-N-((S)-1-((S)-3-hydroxypyrrolidin-1-yl)pentan-2-yl)-N-methylbenzamide] |
| – | > 27 µM | Cc1cccc(C(=O)N(C)[C@H](CN2CC[C@H](O)C2)C(C)C)c1 [N-[(1S)-1-{[(3S)-3-Hydroxypyrrolidin-1-yl]methyl}-2-methylpropyl]-N,3-dimethylbenzamide] |
| – | > 27 µM | CN(C(=O)c1ccc(C#N)cc1)[C@H](CN1CCC1)C1CC1 [N-[(1S)-2-(Azetidin-1-yl)-1-cyclopropyl-ethyl]-4-cyano-N-methyl-benzamide] |
